Columns and labels:
D(3) dopamine receptor = D(3) dopamine receptor (Homo sapiens, UniProt P35462); assay: DRUGMATRIX: Dopamine D3 radioligand binding (ligand: [3H] Spiperone); type: cell membranes, CHO, Membrane; details: cho
[1] = DRUGMATRIX: GABAA, Flunitrazepam, Central radioligand binding (ligand: [3H] Flunitrazepam); type: cell membranes, Rattus norvegicus, Wistar, Brain, Membrane; details: Not Active = under 50% inhibition at 10 µM
[2] = target: Mitogen-activated protein kinase 14 (Homo sapiens, UniProt Q16539); set-up: species or system Escherichia coli;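 note: inhibition of p38alpha enzyme activity in a biochemical kinase assay, with myelin basic protein serving as substrate; in other assays of this panel Not Active means under 50% inhibition at 10 µM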
[3] = target: T1, Polyunsaturated fatty acid lipoxygenase ALOX15 (Oryctolagus cuniculus, UniProt P12530); assay: biochemical; type: tissue-based, Reticulocytes; details: reticulocytes;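 note: inhibition of 15-lipoxygenase enzyme activity measured with linoleic acid as the substrate; in other assays of this panel Not Active means under 50% inhibition at 10 µM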
T1 sequence (P12530 whole entry): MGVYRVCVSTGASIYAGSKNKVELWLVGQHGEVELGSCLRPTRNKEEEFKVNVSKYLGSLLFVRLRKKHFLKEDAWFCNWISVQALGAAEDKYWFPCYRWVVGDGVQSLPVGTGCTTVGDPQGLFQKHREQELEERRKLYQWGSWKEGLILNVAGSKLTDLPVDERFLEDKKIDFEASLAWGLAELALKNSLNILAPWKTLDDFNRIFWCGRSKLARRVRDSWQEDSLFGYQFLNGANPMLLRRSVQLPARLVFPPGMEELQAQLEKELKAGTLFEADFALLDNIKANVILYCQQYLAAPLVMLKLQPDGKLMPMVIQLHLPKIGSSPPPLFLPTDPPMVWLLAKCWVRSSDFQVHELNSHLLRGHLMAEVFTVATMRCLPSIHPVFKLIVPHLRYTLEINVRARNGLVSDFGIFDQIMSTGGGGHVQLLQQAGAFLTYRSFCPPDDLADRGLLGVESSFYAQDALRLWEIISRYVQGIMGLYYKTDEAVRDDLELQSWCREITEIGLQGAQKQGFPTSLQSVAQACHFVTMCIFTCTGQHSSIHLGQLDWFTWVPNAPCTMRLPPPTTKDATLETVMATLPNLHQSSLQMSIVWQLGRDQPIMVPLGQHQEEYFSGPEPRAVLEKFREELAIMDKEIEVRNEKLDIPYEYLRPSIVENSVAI

[4] = target: T2, Receptor-type tyrosine-protein phosphatase C (Homo sapiens, UniProt P08575); set-up: species or system Escherichia coli;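 note: inhibition of CD45 enzyme activity measured using DiFMUP as substrate; in other assays of this panel Not Active means under 50% inhibition at 10 µM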
T2 sequence (P08575 whole entry): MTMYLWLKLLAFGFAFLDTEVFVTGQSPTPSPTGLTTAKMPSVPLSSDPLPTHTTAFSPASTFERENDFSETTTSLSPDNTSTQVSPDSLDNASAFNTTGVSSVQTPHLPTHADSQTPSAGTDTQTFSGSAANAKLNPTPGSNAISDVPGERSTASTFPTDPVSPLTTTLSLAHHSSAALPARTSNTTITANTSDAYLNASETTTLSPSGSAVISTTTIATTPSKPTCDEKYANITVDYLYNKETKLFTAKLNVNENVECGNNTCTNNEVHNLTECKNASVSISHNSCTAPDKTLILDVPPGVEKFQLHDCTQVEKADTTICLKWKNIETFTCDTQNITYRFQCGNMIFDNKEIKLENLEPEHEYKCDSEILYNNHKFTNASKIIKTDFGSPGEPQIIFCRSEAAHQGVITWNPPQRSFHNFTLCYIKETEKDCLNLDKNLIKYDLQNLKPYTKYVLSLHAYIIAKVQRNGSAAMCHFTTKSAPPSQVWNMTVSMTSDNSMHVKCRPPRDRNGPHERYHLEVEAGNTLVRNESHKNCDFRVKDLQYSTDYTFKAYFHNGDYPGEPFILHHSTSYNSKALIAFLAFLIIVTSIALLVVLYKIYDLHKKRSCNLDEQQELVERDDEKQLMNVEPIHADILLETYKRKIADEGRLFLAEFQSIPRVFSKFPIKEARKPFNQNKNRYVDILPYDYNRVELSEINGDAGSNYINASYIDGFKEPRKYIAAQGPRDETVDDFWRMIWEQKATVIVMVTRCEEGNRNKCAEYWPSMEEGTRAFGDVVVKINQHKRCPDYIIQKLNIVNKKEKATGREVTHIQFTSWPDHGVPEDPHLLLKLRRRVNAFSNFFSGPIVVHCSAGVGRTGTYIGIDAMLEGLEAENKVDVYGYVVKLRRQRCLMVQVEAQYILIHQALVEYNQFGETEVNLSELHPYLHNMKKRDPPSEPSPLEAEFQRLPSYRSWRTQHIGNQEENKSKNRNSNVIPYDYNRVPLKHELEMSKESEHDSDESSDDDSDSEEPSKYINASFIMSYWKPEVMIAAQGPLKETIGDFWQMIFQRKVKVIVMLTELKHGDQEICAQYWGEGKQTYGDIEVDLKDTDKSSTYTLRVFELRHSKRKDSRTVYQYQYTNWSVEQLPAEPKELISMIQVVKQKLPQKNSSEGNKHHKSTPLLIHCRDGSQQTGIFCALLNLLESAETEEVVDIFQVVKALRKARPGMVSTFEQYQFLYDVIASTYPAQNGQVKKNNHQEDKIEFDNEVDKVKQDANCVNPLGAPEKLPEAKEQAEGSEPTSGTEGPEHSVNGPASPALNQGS

Estrogen receptor = target: T3, Estrogen receptor (Homo sapiens, UniProt P03372); details: sf9; note: in other assays of this panel Not Active means under 50% inhibition at 10 µM
T3 sequence (P03372 whole entry): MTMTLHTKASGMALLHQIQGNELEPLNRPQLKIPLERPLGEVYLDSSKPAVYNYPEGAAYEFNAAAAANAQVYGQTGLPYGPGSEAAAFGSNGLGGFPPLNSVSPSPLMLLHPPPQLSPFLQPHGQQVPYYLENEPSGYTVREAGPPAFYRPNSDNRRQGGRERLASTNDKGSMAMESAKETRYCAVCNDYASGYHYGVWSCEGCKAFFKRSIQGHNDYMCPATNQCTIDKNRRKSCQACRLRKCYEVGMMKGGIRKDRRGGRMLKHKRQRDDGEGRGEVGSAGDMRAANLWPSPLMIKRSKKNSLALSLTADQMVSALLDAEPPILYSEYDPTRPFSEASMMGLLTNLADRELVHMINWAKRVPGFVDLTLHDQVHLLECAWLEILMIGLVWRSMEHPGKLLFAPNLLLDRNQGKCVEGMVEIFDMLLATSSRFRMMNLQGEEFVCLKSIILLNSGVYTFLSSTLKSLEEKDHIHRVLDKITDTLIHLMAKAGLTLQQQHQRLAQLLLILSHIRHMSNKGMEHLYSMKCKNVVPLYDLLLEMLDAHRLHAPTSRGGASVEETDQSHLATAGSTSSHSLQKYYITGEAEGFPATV

Chain of D(3) dopamine receptor (P35462 whole entry): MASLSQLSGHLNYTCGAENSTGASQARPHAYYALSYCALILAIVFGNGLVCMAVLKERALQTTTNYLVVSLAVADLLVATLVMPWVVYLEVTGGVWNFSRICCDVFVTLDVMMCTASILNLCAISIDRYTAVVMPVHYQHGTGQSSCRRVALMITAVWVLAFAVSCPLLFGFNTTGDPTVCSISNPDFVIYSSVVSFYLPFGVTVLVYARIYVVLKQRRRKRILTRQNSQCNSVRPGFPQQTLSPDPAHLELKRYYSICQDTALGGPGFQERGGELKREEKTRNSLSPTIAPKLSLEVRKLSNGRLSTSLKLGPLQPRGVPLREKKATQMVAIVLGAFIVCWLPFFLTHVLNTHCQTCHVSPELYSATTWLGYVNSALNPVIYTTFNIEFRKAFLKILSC
Chain of Mitogen-activated protein kinase 14 (Q16539 whole entry): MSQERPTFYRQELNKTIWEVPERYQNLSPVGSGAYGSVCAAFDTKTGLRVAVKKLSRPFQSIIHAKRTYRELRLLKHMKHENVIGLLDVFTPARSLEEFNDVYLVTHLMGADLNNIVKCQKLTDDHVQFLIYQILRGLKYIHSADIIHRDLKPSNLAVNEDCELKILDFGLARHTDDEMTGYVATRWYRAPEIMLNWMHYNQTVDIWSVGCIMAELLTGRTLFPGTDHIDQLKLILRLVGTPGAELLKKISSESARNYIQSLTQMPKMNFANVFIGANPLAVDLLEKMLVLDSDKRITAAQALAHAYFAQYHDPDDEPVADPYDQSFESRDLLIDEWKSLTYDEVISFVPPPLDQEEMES

OC[C@H]1O[C@@H]2O[C@H]3[C@H](O)[C@@H](O)[C@@H](O[C@H]4[C@H](O)[C@@H](O)[C@@H](O[C@H]5[C@H](O)[C@@H](O)[C@@H](O[C@H]6[C@H](O)[C@@H](O)[C@@H](O[C@H]7[C@H](O)[C@@H](O)[C@@H](O[C@H]1[C@H](O)[C@H]2O)O[C@@H]7CO)O[C@@H]6CO)O[C@@H]5CO)O[C@@H]4CO)O[C@@H]3CO [ALFADEX]
Not Active: IC50 (D(3) dopamine receptor) | IC50 [1] | Ki [1] | IC50 [2] | IC50 [3] | IC50 [4] | IC50 (Estrogen receptor)

CC(=O)Nc1ccc2c(c1)Cc1ccccc1-2 [2-ACETYLAMINOFLUORENE]
Not Active: IC50 (D(3) dopamine receptor) | IC50 [1] | Ki [1] | IC50 [2] | IC50 [3] | IC50 [4] | IC50 (Estrogen receptor)

O=C(O)CO [GLYCOLIC ACID]
Not Active: IC50 (D(3) dopamine receptor) | IC50 [1] | Ki [1] | IC50 [2] | IC50 [3] | IC50 [4] | IC50 (Estrogen receptor)

CN(Cc1cc(Br)cc(Br)c1N)C1CCCCC1 [BROMHEXINE]
Not Active: IC50 (D(3) dopamine receptor) | IC50 [1] | Ki [1] | IC50 [2] | IC50 [3] | IC50 [4] | IC50 (Estrogen receptor)

CC12CCC(CC1)C(C)(C)O2 [EUCALYPTOL]
Not Active: IC50 (D(3) dopamine receptor) | IC50 [1] | Ki [1] | IC50 [2] | IC50 [3] | IC50 [4] | IC50 (Estrogen receptor)

C[C@@H]1[C@H](O)[C@@H](C)/C=C/C=C/C=C/C=C/C=C/C=C/C=C/[C@H](O[C@@H]2O[C@H](C)[C@@H](O)[C@H](N)[C@@H]2O)C[C@@H]2O[C@](O)(C[C@@H](O)C[C@@H](O)[C@H](O)CC[C@@H](O)C[C@@H](O)CC(=O)O[C@H]1C)C[C@H](O)[C@H]2C(=O)O [AMPHOTERICIN B]
Not Active: IC50 (D(3) dopamine receptor) | IC50 [1] | Ki [1] | IC50 [2] | IC50 [3] | IC50 [4] | IC50 (Estrogen receptor)

Cc1cc(C(C)(C)C)c(O)c(C)c1CC1=NCCN1 [OXYMETAZOLINE]
Not Active: IC50 (D(3) dopamine receptor) | IC50 [1] | Ki [1] | IC50 [2] | IC50 [3] | IC50 [4] | IC50 (Estrogen receptor)

CC12CCC(CC1=O)C2(C)C (configuration not stated) [CAMPHOR]
Not Active: IC50 (D(3) dopamine receptor) | IC50 [1] | Ki [1] | IC50 [2] | IC50 [3] | IC50 [4] | IC50 (Estrogen receptor)

CCC1(c2ccccc2)C(=O)NC(=O)NC1=O [PHENOBARBITAL]
Not Active: IC50 (D(3) dopamine receptor) | IC50 [1] | Ki [1] | IC50 [2] | IC50 [3] | IC50 [4] | IC50 (Estrogen receptor)

C[N+](C)(C)CCOP(=O)([O-])OC[C@H](O)CO
Not Active: IC50 (D(3) dopamine receptor) | IC50 [1] | Ki [1] | IC50 [2] | IC50 [3] | IC50 [4] | IC50 (Estrogen receptor)

Nc1nc(F)nc2c1ncn2[C@@H]1O[C@H](CO)[C@@H](O)[C@@H]1O [FLUDARABINE]
Not Active: IC50 (D(3) dopamine receptor) | IC50 [1] | Ki [1] | IC50 [2] | IC50 [3] | IC50 [4] | IC50 (Estrogen receptor)

c1ccc(Cn2ccnc2)cc1
Not Active: IC50 (D(3) dopamine receptor) | IC50 [1] | Ki [1] | IC50 [2] | IC50 [3] | IC50 [4] | IC50 (Estrogen receptor)

Nc1nc(N)c2nc(CNc3ccc(C(=O)N[C@@H](CCC(=O)O)C(=O)O)cc3)cnc2n1 [AMINOPTERIN]
Not Active: IC50 (D(3) dopamine receptor) | IC50 [1] | Ki [1] | IC50 [2] | IC50 [3] | IC50 [4] | IC50 (Estrogen receptor)

C=C(Cl)Cl [1,1-DICHLOROETHENE]
Not Active: IC50 (D(3) dopamine receptor) | IC50 [1] | Ki [1] | IC50 [2] | IC50 [3] | IC50 [4] | IC50 (Estrogen receptor)

Oc1ncnc2[nH]ncc12 [ALLOPURINOL]
Not Active: IC50 (D(3) dopamine receptor) | IC50 [1] | Ki [1] | IC50 [2] | IC50 [3] | IC50 [4] | IC50 (Estrogen receptor)

O=C(O)CCc1nc(-c2ccccc2)c(-c2ccccc2)o1 [OXAPROZIN]
Not Active: IC50 (D(3) dopamine receptor) | IC50 [1] | Ki [1] | IC50 [2] | IC50 [3] | IC50 [4] | IC50 (Estrogen receptor)
